Laboratory results published in PubChem BioAssay (NCI).
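Test compounds were applied to cells in 96-well plates for 48 hours at 5 doses. The concentration for 50% growth inhibition is given as GI50. At the TGI there is no net growth.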

What was measured:
Test in all cases: growth of human tumour cells (NCI), 48 h
[1] = system: 786-0 renal
[2] = system: A498 renal
[3] = system: A549 NSCLC
[4] = system: ACHN renal
[5] = system: BT-549 breast
[6] = system: CAKI-1 renal
[7] = system: CCRF-CEM leukemia
[8] = system: COLO 205 colon
[9] = system: DU-145 prostate
[10] = system: EKVX NSCLC
[11] = system: HCC-2998 colon
[12] = system: HCT-116 colon
[13] = system: HCT-15 colon
[14] = system: HL-60(TB) leukemia
[15] = system: HOP-62 NSCLC
[16] = system: HOP-92 NSCLC
[17] = system: HS 578T breast
[18] = system: HT29 colon
[19] = system: IGROV1 ovarian
[20] = system: K-562 leukemia
[21] = system: KM12 colon
[22] = system: LOX IMVI melanoma
[23] = system: M14 melanoma
[24] = system: MALME-3M melanoma
[25] = system: MCF7 breast
[26] = system: MDA-MB-231 breast
[27] = system: MDA-MB-435
[28] = system: MOLT-4 leukemia
[29] = system: NCI-H226 lung
[30] = system: NCI-H23 lung
[31] = system: NCI-H460 lung
[32] = system: NCI-H522 lung
[33] = system: NCI/ADR-RES ovarian
[34] = system: OVCAR-3 ovarian
[35] = system: OVCAR-4 ovarian
[36] = system: OVCAR-5 ovarian
[37] = system: OVCAR-8 ovarian
[38] = system: PC-3 prostate
[39] = system: RPMI-8226 leukemia
[40] = system: RXF 393 renal
[41] = system: SF-268 CNS
[42] = system: SF-295 CNS
[43] = system: SF-539 CNS
[44] = system: SK-MEL-2 melanoma
[45] = system: SK-MEL-28 melanoma
[46] = system: SK-MEL-5 melanoma
[47] = system: SK-OV-3 ovarian
[48] = system: SN12C renal
[49] = system: SNB-19 CNS
[50] = system: SNB-75 CNS
[51] = system: SR leukemia
[52] = system: SW-620 colon
[53] = system: T-47D breast
[54] = system: TK-10 renal
[55] = system: U251 CNS
[56] = system: UACC-257 melanoma
[57] = system: UACC-62 melanoma
[58] = system: UO-31 renal

Which GI50 [1] does the source give for CN(C)c1ccc(/C=C\c2ccnc3ccccc23)cc1 here?
The GI50 was 6.03 µM.

What about the TGI [1] of the same compound?
The TGI was greater than 39.2 µM.

What about the GI50 [2] of the same compound?
The GI50 was 7.57 µM.

What about the TGI [2] of the same compound?
The TGI was greater than 26.7 µM.

And the GI50 [3]?
The GI50 was 5.83 µM.

And the TGI [3]?
The TGI was greater than 100 µM.

And the GI50 [4]?
The GI50 was 20.7 µM.

What about the TGI [4] of the same compound?
The TGI was greater than 100 µM.

And the GI50 [5]?
The GI50 was 5.09 µM.

What about the TGI [5] of the same compound?
Its TGI is 49.9 µM.

And the GI50 [6]?
Its GI50 is 10.2 µM.

What about the TGI [6] of the same compound?
The TGI was greater than 100 µM.

What about the GI50 [7] of the same compound?
The GI50 was 5.13 µM.

What about the TGI [7] of the same compound?
Its TGI is greater than 100 µM.

What about the GI50 [8] of the same compound?
The GI50 was 4.75 µM.

What about the TGI [8] of the same compound?
Its TGI is 41.5 µM.

What about the GI50 [9] of the same compound?
The GI50 was 12.1 µM.

What about the TGI [9] of the same compound?
Its TGI is greater than 88.5 µM.

What about the GI50 [10] of the same compound?
Its GI50 is 2.63 µM.

What about the TGI [10] of the same compound?
Its TGI is greater than 37.9 µM.

And the GI50 [11]?
The GI50 was 6.04 µM.

What about the TGI [11] of the same compound?
The TGI was greater than 100 µM.

And the GI50 [12]?
The GI50 was 5.34 µM.

What about the TGI [12] of the same compound?
The TGI was greater than 52.6 µM.

What about the GI50 [13] of the same compound?
The GI50 was 4.42 µM.

What about the TGI [13] of the same compound?
Its TGI is greater than 100 µM.

What about the GI50 [14] of the same compound?
The GI50 was greater than 20.2 µM.

And the TGI [14]?
The TGI was greater than 86.8 µM.

What about the GI50 [15] of the same compound?
Its GI50 is 7.5 µM.

What about the TGI [15] of the same compound?
Its TGI is greater than 67.9 µM.

What about the GI50 [16] of the same compound?
The GI50 was 6.23 µM.

What about the TGI [16] of the same compound?
Its TGI is 60.4 µM.

What about the GI50 [17] of the same compound?
The GI50 was 13 µM.

What about the TGI [17] of the same compound?
Its TGI is greater than 47.9 µM.

What about the GI50 [18] of the same compound?
The GI50 was 2.49 µM.

And the TGI [18]?
Its TGI is 12.4 µM.

What about the GI50 [19] of the same compound?
The GI50 was 8.85 µM.

And the TGI [19]?
Its TGI is greater than 100 µM.

And the GI50 [20]?
Its GI50 is greater than 21.1 µM.

What about the TGI [20] of the same compound?
Its TGI is greater than 100 µM.

What about the GI50 [21] of the same compound?
The GI50 was 3.66 µM.

And the TGI [21]?
The TGI was 51 µM.

What about the GI50 [22] of the same compound?
Its GI50 is 9.82 µM.

And the TGI [22]?
Its TGI is greater than 100 µM.

What about the GI50 [23] of the same compound?
Its GI50 is 4.42 µM.

And the TGI [23]?
The TGI was greater than 66 µM.

And the GI50 [24]?
The GI50 was 17.7 µM.

What about the TGI [24] of the same compound?
The TGI was greater than 89.2 µM.

And the GI50 [25]?
The GI50 was 0.328 µM.

What about the TGI [25] of the same compound?
The TGI was 10.9 µM.

And the GI50 [26]?
The GI50 was 11.3 µM.

What about the TGI [26] of the same compound?
The TGI was greater than 73.9 µM.

What about the GI50 [27] of the same compound?
Its GI50 is 1.47 µM.

What about the TGI [27] of the same compound?
Its TGI is greater than 30.5 µM.

What about the GI50 [28] of the same compound?
The GI50 was 14.5 µM.

And the TGI [28]?
Its TGI is greater than 100 µM.

What about the GI50 [29] of the same compound?
The GI50 was 2.86 µM.

And the TGI [29]?
Its TGI is 48.2 µM.

And the GI50 [30]?
Its GI50 is 3.63 µM.

What about the TGI [30] of the same compound?
The TGI was 63.4 µM.

And the GI50 [31]?
Its GI50 is 5.2 µM.

And the TGI [31]?
Its TGI is greater than 91.8 µM.

What about the GI50 [32] of the same compound?
The GI50 was 6.4 µM.

What about the TGI [32] of the same compound?
Its TGI is greater than 100 µM.

What about the GI50 [33] of the same compound?
Its GI50 is 2.93 µM.

And the TGI [33]?
The TGI was greater than 58.5 µM.

And the GI50 [34]?
The GI50 was 7.88 µM.

And the TGI [34]?
The TGI was greater than 60 µM.

What about the GI50 [35] of the same compound?
Its GI50 is 9.77 µM.

And the TGI [35]?
The TGI was greater than 100 µM.

And the GI50 [36]?
Its GI50 is 12.7 µM.

And the TGI [36]?
The TGI was greater than 100 µM.

What about the GI50 [37] of the same compound?
The GI50 was 5.26 µM.

And the TGI [37]?
Its TGI is greater than 100 µM.

And the GI50 [38]?
The GI50 was 17.9 µM.

What about the TGI [38] of the same compound?
Its TGI is greater than 100 µM.

And the GI50 [39]?
Its GI50 is 4.02 µM.

What about the TGI [39] of the same compound?
The TGI was greater than 85 µM.

And the GI50 [40]?
The GI50 was 3.2 µM.

And the TGI [40]?
Its TGI is greater than 79.6 µM.

What about the GI50 [41] of the same compound?
The GI50 was 21.8 µM.

And the TGI [41]?
The TGI was greater than 100 µM.

And the GI50 [42]?
The GI50 was 3.56 µM.

And the TGI [42]?
Its TGI is greater than 44.7 µM.

And the GI50 [43]?
The GI50 was 5.17 µM.

And the TGI [43]?
Its TGI is 25.8 µM.

What about the GI50 [44] of the same compound?
Its GI50 is 21.2 µM.

What about the TGI [44] of the same compound?
Its TGI is greater than 100 µM.

What about the GI50 [45] of the same compound?
Its GI50 is 21.7 µM.

What about the TGI [45] of the same compound?
The TGI was greater than 80.5 µM.

What about the GI50 [46] of the same compound?
Its GI50 is 2.96 µM.

And the TGI [46]?
Its TGI is 9.69 µM.

What about the GI50 [47] of the same compound?
Its GI50 is 5.25 µM.

What about the TGI [47] of the same compound?
The TGI was greater than 100 µM.

And the GI50 [48]?
Its GI50 is 8.81 µM.

And the TGI [48]?
Its TGI is greater than 74.1 µM.

What about the GI50 [49] of the same compound?
Its GI50 is 10.6 µM.

What about the TGI [49] of the same compound?
Its TGI is greater than 100 µM.

What about the GI50 [50] of the same compound?
Its GI50 is 1.44 µM.

And the TGI [50]?
The TGI was 8.97 µM.

What about the TGI [51] of the same compound?
The TGI was greater than 100 µM.

What about the GI50 [52] of the same compound?
The GI50 was 5.78 µM.

And the TGI [52]?
Its TGI is greater than 96 µM.

What about the GI50 [53] of the same compound?
The GI50 was 2.48 µM.

And the TGI [53]?
Its TGI is greater than 100 µM.

And the GI50 [54]?
Its GI50 is 14.7 µM.

And the TGI [54]?
The TGI was greater than 100 µM.

And the GI50 [55]?
Its GI50 is 9.43 µM.

What about the TGI [55] of the same compound?
The TGI was greater than 100 µM.

And the GI50 [56]?
The GI50 was 8.39 µM.

And the TGI [56]?
Its TGI is 79.4 µM.

What about the GI50 [57] of the same compound?
Its GI50 is 6.18 µM.

And the TGI [57]?
Its TGI is greater than 100 µM.

What about the GI50 [58] of the same compound?
The GI50 was 4.4 µM.

And the TGI [58]?
Its TGI is 68.7 µM.
